System: ALL-SIL
Test: selective drug sensitivity score (sDSS, relative to normal bone marrow) (sDSS (score)); higher = more potent and effective on the cell line relative to normal bone marrow cells
Settings: 72 h
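Further: ALL cell lines in 384-well plates, five doses spanning 10,000-fold, each plate scaled between vehicle and 100 µmol/L benzalkonium chloride controls, sDSS an adapted area-under-curve metric.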

SMILES	selective drug sensitivity score
C[C@@H]1CN(CC(=O)Nc2ccc3c(c2)Cc2cccc(-c4cc(=O)cc(N5CCOCC5)o4)c2S3)C[C@H](C)O1 (top concentration 25000 nM)	3.32
COc1ccc2[nH]cc(/C=C3\C(=O)Nc4ccc(NC(=O)CCN5CCCCC5)cc43)c2c1 (top concentration 50000 nM)	1.58
Cc1nn(C)c(COc2ccc(N3CCN(S(=O)(=O)N(C)C)CC3)cc2)c1-c1cccc2c(CCCOc3cccc4ccccc34)c(C(=O)O)n(CCN3CCOCC3)c12 (top concentration 50000 nM)	7.26
C[C@H](Nc1ncnc2[nH]cnc12)c1cc2ccc(F)cc2nc1-c1ccccn1 [AMG319] (top concentration 1000 nM)	-1.42
C=CCn1c(=O)c2cnc(Nc3ccc(N4CCN(C)CC4)cc3)nc2n1-c1cccc(C(C)(C)O)n1 [AZD1775] (top concentration 10000 nM)	10
NC(=O)Nc1cc(-c2cccc(F)c2)sc1C(=O)N[C@H]1CCCNC1 [AZD7762] (top concentration 1000 nM)	0
Cc1cc([C@@H](C)Nc2ccccc2C(=O)O)c2nc(N3CCOCC3)cc(=O)n2c1 [AZD-6482] (top concentration 2500 nM)	-0.28
CN(C)Cc1c(C(=O)NCCOc2ccc(C(=O)NO)cc2)oc2ccccc12 [Abexinostat] (top concentration 10000 nM)	6.76
S=C(NCc1ccc2c(c1)OCO2)N1CCN(c2ncnc3c2oc2ccccc23)CC1 [Amuvatinib] (top concentration 10000 nM)	6.66
CC(=O)OC[C@H]1O[C@@H]([S-])[C@H](OC(C)=O)[C@@H](OC(C)=O)[C@@H]1OC(C)=O.CCP(CC)CC.[Au+] [Auranofin] (top concentration 2500 nM)	2.44

System: CCRF-HSB2
Test: as above
Settings: 72 h

SMILES	selective drug sensitivity score
Cc1c(-c2ccc(N3CCc4cccc(C(=O)Nc5nc6ccccc6s5)c4C3)nc2C(=O)O)cnn1CC12CC3CC(CC(C3)C1)C2 (top concentration 1000 nM)	10.2
O=C(NOC[C@H](O)CO)c1ccc(F)c(F)c1Nc1ccc(I)cc1F (top concentration 1000 nM)	0.44
CO[C@@H](C)Cn1c(=O)n(C)c2cnc3ccc(-c4cncc(C(C)(C)O)c4)cc3c21 (top concentration 2500 nM)	5.58
Cc1cccc(CC(=O)N2CCc3c2ccc(-c2cn(C)c4ncnc(N)c24)c3F)n1 (top concentration 2500 nM)	2.82
CNC(=O)c1ccccc1Nc1nc(Nc2ccc3c(c2OC)CCC[C@H](N2CCN(CCO)CC2)C3)ncc1Cl (top concentration 5000 nM)	-1.44
COc1cc2ncnc(Oc3cccc(NC(=O)Nc4cc(C(C)(C)C(F)(F)F)on4)c3)c2cc1OC (top concentration 10000 nM)	23.2
C[C@@H](Oc1cc(-n2cnc3ccc(CN4CCN(C)CC4)cc32)sc1C(N)=O)c1ccccc1C(F)(F)F (top concentration 10000 nM)	24.2
Nc1nccc(-c2c(-c3ccc(F)cc3)ncn2C2CCCCC2)n1 (top concentration 10000 nM)	3.4
O=C(O)c1ccc(-c2c[nH]c3ncc(-c4ccccc4)cc23)cc1C1CCCC1 (top concentration 10000 nM)	3.16
C[C@@H]1CN(CC(=O)Nc2ccc3c(c2)Cc2cccc(-c4cc(=O)cc(N5CCOCC5)o4)c2S3)C[C@H](C)O1 (top concentration 25000 nM)	0.42
COc1ccc2[nH]cc(/C=C3\C(=O)Nc4ccc(NC(=O)CCN5CCCCC5)cc43)c2c1 (top concentration 50000 nM)	6.68
Cc1nn(C)c(COc2ccc(N3CCN(S(=O)(=O)N(C)C)CC3)cc2)c1-c1cccc2c(CCCOc3cccc4ccccc34)c(C(=O)O)n(CCN3CCOCC3)c12 (top concentration 50000 nM)	5.36
C[C@H](Nc1ncnc2[nH]cnc12)c1cc2ccc(F)cc2nc1-c1ccccn1 [AMG319] (top concentration 1000 nM)	-1.32
C=CCn1c(=O)c2cnc(Nc3ccc(N4CCN(C)CC4)cc3)nc2n1-c1cccc(C(C)(C)O)n1 [AZD1775] (top concentration 10000 nM)	13.6
NC(=O)Nc1cc(-c2cccc(F)c2)sc1C(=O)N[C@H]1CCCNC1 [AZD7762] (top concentration 1000 nM)	8.2
Cc1cc([C@@H](C)Nc2ccccc2C(=O)O)c2nc(N3CCOCC3)cc(=O)n2c1 [AZD-6482] (top concentration 2500 nM)	2.12
CN(C)Cc1c(C(=O)NCCOc2ccc(C(=O)NO)cc2)oc2ccccc12 [Abexinostat] (top concentration 10000 nM)	6.36
S=C(NCc1ccc2c(c1)OCO2)N1CCN(c2ncnc3c2oc2ccccc23)CC1 [Amuvatinib] (top concentration 10000 nM)	3.96
CC(=O)OC[C@H]1O[C@@H]([S-])[C@H](OC(C)=O)[C@@H](OC(C)=O)[C@@H]1OC(C)=O.CCP(CC)CC.[Au+] [Auranofin] (top concentration 2500 nM)	-1.86

System: COG-LL-394h
Test: as above
Settings: 72 h

SMILES	selective drug sensitivity score
Cc1c(-c2ccc(N3CCc4cccc(C(=O)Nc5nc6ccccc6s5)c4C3)nc2C(=O)O)cnn1CC12CC3CC(CC(C3)C1)C2 (top concentration 1000 nM)	7.94
O=C(NOC[C@H](O)CO)c1ccc(F)c(F)c1Nc1ccc(I)cc1F (top concentration 1000 nM)	-0.26
CO[C@@H](C)Cn1c(=O)n(C)c2cnc3ccc(-c4cncc(C(C)(C)O)c4)cc3c21 (top concentration 2500 nM)	-1.82
Cc1cccc(CC(=O)N2CCc3c2ccc(-c2cn(C)c4ncnc(N)c24)c3F)n1 (top concentration 2500 nM)	5.42
CNC(=O)c1ccccc1Nc1nc(Nc2ccc3c(c2OC)CCC[C@H](N2CCN(CCO)CC2)C3)ncc1Cl (top concentration 5000 nM)	3.16
COc1cc2ncnc(Oc3cccc(NC(=O)Nc4cc(C(C)(C)C(F)(F)F)on4)c3)c2cc1OC (top concentration 10000 nM)	3.9
C[C@@H](Oc1cc(-n2cnc3ccc(CN4CCN(C)CC4)cc32)sc1C(N)=O)c1ccccc1C(F)(F)F (top concentration 10000 nM)	3.22
Nc1nccc(-c2c(-c3ccc(F)cc3)ncn2C2CCCCC2)n1 (top concentration 10000 nM)	0
O=C(O)c1ccc(-c2c[nH]c3ncc(-c4ccccc4)cc23)cc1C1CCCC1 (top concentration 10000 nM)	-1.44
C[C@@H]1CN(CC(=O)Nc2ccc3c(c2)Cc2cccc(-c4cc(=O)cc(N5CCOCC5)o4)c2S3)C[C@H](C)O1 (top concentration 25000 nM)	-0.68
COc1ccc2[nH]cc(/C=C3\C(=O)Nc4ccc(NC(=O)CCN5CCCCC5)cc43)c2c1 (top concentration 50000 nM)	0.18
Cc1nn(C)c(COc2ccc(N3CCN(S(=O)(=O)N(C)C)CC3)cc2)c1-c1cccc2c(CCCOc3cccc4ccccc34)c(C(=O)O)n(CCN3CCOCC3)c12 (top concentration 50000 nM)	4.56
C[C@H](Nc1ncnc2[nH]cnc12)c1cc2ccc(F)cc2nc1-c1ccccn1 [AMG319] (top concentration 1000 nM)	-1.42
C=CCn1c(=O)c2cnc(Nc3ccc(N4CCN(C)CC4)cc3)nc2n1-c1cccc(C(C)(C)O)n1 [AZD1775] (top concentration 10000 nM)	5.54
NC(=O)Nc1cc(-c2cccc(F)c2)sc1C(=O)N[C@H]1CCCNC1 [AZD7762] (top concentration 1000 nM)	-3.5
Cc1cc([C@@H](C)Nc2ccccc2C(=O)O)c2nc(N3CCOCC3)cc(=O)n2c1 [AZD-6482] (top concentration 2500 nM)	-0.28
CN(C)Cc1c(C(=O)NCCOc2ccc(C(=O)NO)cc2)oc2ccccc12 [Abexinostat] (top concentration 10000 nM)	3.86
S=C(NCc1ccc2c(c1)OCO2)N1CCN(c2ncnc3c2oc2ccccc23)CC1 [Amuvatinib] (top concentration 10000 nM)	7.36
CC(=O)OC[C@H]1O[C@@H]([S-])[C@H](OC(C)=O)[C@@H](OC(C)=O)[C@@H]1OC(C)=O.CCP(CC)CC.[Au+] [Auranofin] (top concentration 2500 nM)	0.14
